Test [1] concerns Naegleria fowleri. The experiment in a line: Substrate activity at Naegleria fowleri CYP51 expressed in Escherichia coli HMS-174 (DE3) assessed as Kcat/Km by spectroscopy.
Test [2] in a line: Substrate activity at Naegleria fowleri CYP51 expressed in Escherichia coli HMS-174 (DE3) assessed as dissociation constant by Morrison equation.
For test [3], the system named is Naegleria fowleri. The experiment in a line: Substrate activity at Naegleria fowleri CYP51 expressed in Escherichia coli HMS-174 (DE3) assessed as Km by spectroscopy.
Test [4] concerns Naegleria fowleri. As to the kind of experiment: Substrate activity at Naegleria fowleri CYP51 expressed in Escherichia coli HMS-174 (DE3) assessed as Kcat by spectroscopy.
Test [5] is described as follows: Inhibition of Naegleria fowleri CYP51 catalytic activity using [3-3H]sterol substrate measured after 1 hr by RP-HPLC analysis.
The nature of test [6]: Binding affinity to Naegleria fowleri CYP51 expressed in Escherichia coli HMS-174 (DE3) assessed as dissociation constant by quadratic Morrison equation.
Test [7] can be described thus: Substrate activity at Naegleria fowleri CYP51 expressed in Escherichia coli HMS-174 (DE3) assessed as dissociation constant by Michaelis-Menten equation.
Test [8] in a line: Irreversible inhibitor of Typho-chrestus brucei CYP51.
A short description of test [9]: Irreversible inhibitor of Trigo-noscuta cruzi CYP51.

SMILES strings stand for the structures.

By kcat/Km is commonly meant the turnover number divided by the Michaelis constant. The Kd is the free concentration of one partner at which half of the binding sites on the other are occupied at equilibrium, for simple one-to-one binding. The term Km denotes the concentration of substrate that gives half-maximal velocity. What is called kcat is the number of substrate molecules converted per active site and unit of time at saturation. For `C=C(CC[C@@H](C)[C@H]1CC[C@@]2(C)C3=C(CC[C@]12C)[C@@]1(C)CC[C@H](O)[C@@H](C)[C@@H]1CC3)C(C)C` [OBTUSIFOLIOL], in the test on Naegleria fowleri [1], the kcat/Km worked out at 53300 M⁻¹ s⁻¹. In addition, in [2], the Kd was 0.023 µM. Also, the Michaelis-Menten constant (Km) in the test with Naegleria fowleri [3] is 8 µM. For the same molecule, in the test with Naegleria fowleri [4], the kcat amounted to 0.433 s⁻¹. One may read the IC50 as the concentration at which inhibition is half-maximal. A low value points to inhibition by little substance. In turn, `O=C(N[C@@H](Cn1ccnc1)c1c(F)cc(-c2ccc(F)cc2)cc1F)c1ccc(-c2nnc(-c3ccccc3)o2)cc1` gave a 50% inhibitory concentration (IC50) in test [5] of 0.35 µM. Moreover, the Kd in test [6] was found to be 0.007 µM. Consider `O=C(N[C@@H](Cn1ccnc1)c1ccc(-c2ccc(F)cc2)cc1Cl)c1ccc(-c2nnc(-c3ccccc3)o2)cc1`, for which 0.68 µM corresponded to half-maximal inhibition in [5] (IC50). In test [6], the Kd turned out to be 0.025 µM. In the case of `CCC(C)n1ncn(-c2ccc(N3CCN(c4ccc(OCC5COC(Cn6cncn6)(c6ccc(Cl)cc6Cl)O5)cc4)CC3)cc2)c1=O` (stereo not drawn) [ITRACONAZOLE], half-maximal inhibition in [5] (IC50) was put at 2.05 µM. With `C[C@@H](c1ncncc1F)[C@](O)(Cn1cncn1)c1ccc(F)cc1F` [VORICONAZOLE], in [5], 3.22 µM corresponded to half-maximal inhibition (IC50). Take `CC(C)=CCC[C@@H](C)[C@H]1CC[C@@]2(C)C3=C(CC[C@]12C)[C@@]1(C)CC[C@H](O)[C@@H](C)[C@@H]1CC3`: the Kd in test [2] was 0.271 µM.

Take `C[C@@H](c1nc(-c2ccc(C#N)cc2)cs1)C(O)(Cn1cncn1)c1cc(F)ccc1F` (stereo partly drawn): the IC50 in [5] was 0.9 µM. In test [5], `O=C(N[C@@H](Cn1ccnc1)c1ccc(Cl)cc1Cl)c1ccc(-c2nnc(-c3ccc(F)c(F)c3)o2)cc1` showed an IC50 of 1.28 µM. Besides, the Kd in [6] worked out at 0.003 µM.

As to `CC(=O)N1CCN(c2ccc(OCC3COC(Cn4ccnc4)(c4ccc(Cl)cc4Cl)O3)cc2)CC1` (stereo not drawn) [KETOCONAZOLE], the dissociation constant (Kd) in [6] came out at 0.005 µM. With `CC[C@@H]([C@H](C)O)n1ncn(-c2ccc(N3CCN(c4ccc(OC[C@@H]5CO[C@@](Cn6cncn6)(c6ccc(F)cc6F)C5)cc4)CC3)cc2)c1=O` [POSACONAZOLE], inhibition in [5] was half-maximal at 0.69 µM (IC50). On to `CC(C)=CCC[C@@H](C)[C@H]1CC[C@@]2(C)C3=C(CC[C@]12C)[C@@]1(C)CC[C@H](O)C(C)(C)[C@@H]1CC3` [LANOSTEROL], for which the kcat/Km with Naegleria fowleri [1] was determined as 21700 M⁻¹ s⁻¹. In addition, the Kd in test [2] worked out at 0.028 µM. Besides, in the test on Naegleria fowleri [3], the Km amounted to 48 µM. Moreover, the kcat with Naegleria fowleri [4] came to 1.07 s⁻¹.

On to `O=C(N[C@@H](Cn1ccnc1)c1ccc(Cl)cc1Cl)c1ccc(-c2nnc(-c3ccc(C(F)(F)F)c(F)c3)o2)cc1`, for which, in [5], half-maximal inhibition (IC50) was put at 0.93 µM. Also, the Kd in [6] was determined as 0.011 µM. As for `CC(C)=CCC[C@@H](C)[C@H]1CC[C@@]2(C)[C@@H]3CC[C@H]4C(C)(C)[C@@H](O)CC[C@@]45C[C@]35CC[C@]12C`, the Kd in test [7] amounted to 0.829 µM. As for `O=C(N[C@@H](Cn1ccnc1)c1ccc(-c2ccc(F)cc2)cc1F)c1ccc(-c2nnc(-c3ccccc3)o2)cc1`, half-maximal inhibition in test [5] (IC50) required 5.94 µM. Moreover, the Kd in test [6] came out at 0.01 µM. Take `O=C(N[C@@H](Cn1ccnc1)c1ccc(Cl)cc1Cl)c1ccc(-c2nnc(-c3ccccc3)o2)cc1`: the IC50 in test [8] and in test [9] was 5.6 µM each time. Also, the Kd in test [6] turned out to be 0.005 µM.

(Values after ChEMBL document CHEMBL5055682, “Relaxed Substrate Requirements of Sterol 14α-Demethylase from Naegleria fowleri Are Accompanied by Resistance to Inhibition” (J Med Chem, 2021).)
